Test results published in patent publication US10206988B2, “Xenoantigen-displaying anti-cancer vaccines and method of making” (The University of Toledo, priority 2012, dated 2019).

How the values were obtained:
[1] = tested on: female BALB/c mice; assay: Comparison of anti-Rha antibody titers and isotypes generated against Rha-Ficoll and Rha-OVA (screening against Rha-BSA); type: in vivo; conditions: isotype distribution, sera screened against Rha-BSA
Description: (§1) 96 well plates (Immulon 4 HBX) were coated with Rha-BSA conjugate (6) (2 μg/mL) in 0.01 M PBS and incubated overnight at 4° C. The plates were washed 5 times with PBS containing 0.1% Tween-20. Blocking was achieved by incubating the plates for 1 h at room temperature with BSA in 0.01 M PBS (1 mg/mL). The plates were then washed 5 times and incubated for 1 h with serum dilutions in PBS. Unbound antibody in the serum was removed by washing and the plates were incubated for 1 h at room temperature with Horseradish Peroxidase (HRP) goat anti-mouse IgG+IgM (Jackson Immunoresearch Laboratories) diluted 5000 times in PBS/BSA. The plates were washed with TMB (3,3′,5,5′-tetramethylbenzidine). One component HRP microwell substrate (Bio FX, Owings Mills, Md.) was added and allowed to react for 10 mins. Absorbances were recorded at 620 nm and were plotted against log10 [1/serum dilution].
Two groups of five female BALB/c mice each were immunized on day 0 with Rha-Ficoll/Alum adjuvant (group A) or Rha-OVA/complete Freund's adjuvant (CFA) (group B). The mice were boosted three more times on days 14, 28, and 42 with either Rha-Ficoll/Alum (group A) or rha-OVA/incomplete Freund's adjuvant (ICF) (group B). Sera were collected separately from groups A and B after the third boost and the anti-Rha antibodies in the sera from the two groups of mice were isotyped by screening against Rha-BSA. […]

[2] = tested on: female BALB/c mice; assay: Anti-Rha antibody generation with Rha-Ficoll/Alum (ELISA against Rha-BSA); type: in vivo; conditions: day 66 sera
Description: The 20 female BALB/c mice used for this study were divided into four groups A1, A2, B1, and B2, containing 5 mice each. Groups A1 and B1 served as the control groups and were not immunized. Groups A2 and B2 were injected subcutaneously (day 0) with a 100 μL subcutaneous injections Rha-Ficoll/Alum on days 14, 28, 42, and 56 (100 μg of Rha-Ficoll per mouse, each boost). The mice in each group A1, A2, B1, and B2 were bled on day 66 and the collected sera were tested for anti-Rha antibodies.
as §1, with “dilution]. […]” for “dilution].”

[3] = tested on: U266 cells; assay: Tumor cell staining (FACS); type: cell-based, human; conditions: 0.5 μg antibody, FITC goat anti-mouse IgG+IgM
Description: U266 cells (American Type Culture Collection, Manassas, Va.), were cultured in RPMI 1640 with 15% fetal calf serum (FCS). Cells were stained with purified mouse anti-human MUC1 antibodies (CD227, 0.5 μg), non-immune BALB/c mice serum (1/5 dilution) and group B2 mice serum (1/5 dilution). The cells were then stained with FITC-conjugated goat anti-mouse IgG+IgM (0.5 μg) and fluorescence was quantified with a BD FACS Calibur.
These cells express MUC1 on their surface as shown by binding with mouse anti-human MUC1 antibodies (CD 227).

In the case of “2-Aminoethyl-α-L-Rhamnopyranoside-Ficoll Conjugate [Rha-Ficoll]”, the “IgG3 share of anti-Rha antibodies” value [1] is reported as 48%, the “IgM share of anti-Rha antibodies” value [1] is reported as 25% and the “anti-Rha antibody titers in groups A2 and B2 relative to control groups” value [2] is reported as 25 fold.
With “CD 227: purified mouse anti-human CD227 (anti-human MUC1) from BD-biosciences” the “binding to MUC1 on U266 human leukemia cells” value [3] was “binding”.
